Assay results as given in ChEMBL document CHEMBL1201862, “PubChem BioAssay data set” (2004).
Values belong to the compound of their own block, whether it stands above or below them. Activity calls are given as the source filed them.

Experiments:
[1] = target: Acyl-homoserine lactone acylase PvdQ (Pseudomonas aeruginosa (strain LESB58), UniProt Q9I194); assay: PvdQ acylase enzyme activity blockers – biochemical, fluorescence, plate reader and imaging, cherry-picks, dose response (AID 493231)
[2] = target: Lysosomal acid glucosylceramidase (Homo sapiens, UniProt P04062); assay: Dose response cell-based high throughput screening assay to identify enhancers of beta-glucosidase activity. [Related pubchem assays: 784 ]; assay type: functional
Chain of Lysosomal acid glucosylceramidase (P04062 whole entry, the tested form may be a part): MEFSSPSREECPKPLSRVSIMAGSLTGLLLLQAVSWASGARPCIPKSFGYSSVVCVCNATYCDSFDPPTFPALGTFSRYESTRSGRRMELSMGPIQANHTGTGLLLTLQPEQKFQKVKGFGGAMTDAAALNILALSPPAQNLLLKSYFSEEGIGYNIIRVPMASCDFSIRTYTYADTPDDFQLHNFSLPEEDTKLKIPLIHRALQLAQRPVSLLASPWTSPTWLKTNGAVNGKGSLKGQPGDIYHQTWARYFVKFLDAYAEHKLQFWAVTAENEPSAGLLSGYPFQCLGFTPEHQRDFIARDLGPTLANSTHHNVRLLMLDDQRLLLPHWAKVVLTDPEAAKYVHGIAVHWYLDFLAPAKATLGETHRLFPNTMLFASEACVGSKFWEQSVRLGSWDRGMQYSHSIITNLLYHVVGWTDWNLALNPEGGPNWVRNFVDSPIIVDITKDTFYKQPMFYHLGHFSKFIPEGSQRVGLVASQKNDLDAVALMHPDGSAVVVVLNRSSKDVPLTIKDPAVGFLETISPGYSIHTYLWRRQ

[3] = target: T1, Polyadenylate-binding protein 1 (Homo sapiens, UniProt P11940); assay: MLLE domain peptide-binding blockers, IC50 – biochemical, fluorescence polarization, FITC-PAM2 peptide, dose response (AID 602259); assay type: functional; settings: read-out: IC50_Mean
T1 sequence (P11940 whole entry, the tested form may be a part): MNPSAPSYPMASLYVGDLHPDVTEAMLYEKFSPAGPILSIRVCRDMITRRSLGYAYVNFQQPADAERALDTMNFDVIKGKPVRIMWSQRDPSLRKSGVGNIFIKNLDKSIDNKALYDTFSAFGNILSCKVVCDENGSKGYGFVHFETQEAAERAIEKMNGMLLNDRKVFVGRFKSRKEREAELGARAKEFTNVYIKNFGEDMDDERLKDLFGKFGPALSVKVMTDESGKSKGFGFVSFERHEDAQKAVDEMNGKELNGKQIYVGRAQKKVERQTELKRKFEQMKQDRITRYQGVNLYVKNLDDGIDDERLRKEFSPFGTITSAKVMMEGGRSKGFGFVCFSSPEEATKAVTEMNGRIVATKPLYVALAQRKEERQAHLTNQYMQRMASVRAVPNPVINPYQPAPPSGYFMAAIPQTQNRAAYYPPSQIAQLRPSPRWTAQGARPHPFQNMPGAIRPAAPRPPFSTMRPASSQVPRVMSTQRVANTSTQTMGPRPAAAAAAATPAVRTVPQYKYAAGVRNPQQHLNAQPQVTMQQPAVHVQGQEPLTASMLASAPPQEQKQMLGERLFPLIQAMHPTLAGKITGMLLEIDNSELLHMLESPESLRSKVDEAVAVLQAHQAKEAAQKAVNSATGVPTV

[4] = target: T1, Polyadenylate-binding protein 1; assay: MLLE binding blockers, Cy5 peptide tracer – biochemical, fluorescence polarization, Cy5-PAM2 peptide, secondary, miRNA deadenylation inhibitor project, dose response (AID 602260); assay type: functional; settings: read-out: IC50_Mean
[5] = target: T2, Zinc finger protein mex-5 (Caenorhabditis elegans, UniProt Q9XUB2); assay: potency of MEX-5 RNA-binding blockers – biochemical, C. elegans, fluorescence polarization, dose response (AID 1960)
T2 sequence (Q9XUB2 whole entry): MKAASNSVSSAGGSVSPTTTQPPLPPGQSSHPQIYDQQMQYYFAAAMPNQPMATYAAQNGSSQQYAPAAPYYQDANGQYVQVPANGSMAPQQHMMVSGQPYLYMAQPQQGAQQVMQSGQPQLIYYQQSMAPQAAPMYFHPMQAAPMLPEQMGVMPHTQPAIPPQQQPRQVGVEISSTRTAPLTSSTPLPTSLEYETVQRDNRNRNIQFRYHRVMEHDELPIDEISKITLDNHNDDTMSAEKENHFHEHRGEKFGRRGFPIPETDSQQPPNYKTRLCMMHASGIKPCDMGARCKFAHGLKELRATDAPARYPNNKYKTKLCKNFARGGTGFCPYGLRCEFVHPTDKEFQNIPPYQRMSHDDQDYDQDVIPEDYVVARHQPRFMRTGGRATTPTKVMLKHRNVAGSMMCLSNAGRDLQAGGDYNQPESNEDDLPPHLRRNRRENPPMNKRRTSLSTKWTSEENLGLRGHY

[6] = target: T3, RNA-binding protein pos-1 (Caenorhabditis elegans, UniProt G5EF15); assay: disruptors of C. elegans POS-1 RNA interaction – biochemical, fluorescence polarization, dose response (AID 1964);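 note: purified POS-1 fused to maltose binding protein made in E. coli; potency of compounds blocking POS-1 binding to fluorescent RNA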
T3 sequence (G5EF15 whole entry): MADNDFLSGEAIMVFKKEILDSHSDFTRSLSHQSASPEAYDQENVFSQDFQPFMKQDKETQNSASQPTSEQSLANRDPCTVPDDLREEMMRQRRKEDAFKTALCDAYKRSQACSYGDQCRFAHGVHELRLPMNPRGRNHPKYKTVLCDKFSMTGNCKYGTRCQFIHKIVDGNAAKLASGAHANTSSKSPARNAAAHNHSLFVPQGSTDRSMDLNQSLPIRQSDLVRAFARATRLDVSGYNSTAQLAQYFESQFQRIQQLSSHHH

[7] = target: T4, Hexokinase HKDC1 (Homo sapiens, UniProt Q2TB90); assay: inhibition of HKDC1 glucose phosphorylation – biochemical, W721R variant, dose response (AID 504729); assay type: functional
T4 sequence (Q2TB90 whole entry): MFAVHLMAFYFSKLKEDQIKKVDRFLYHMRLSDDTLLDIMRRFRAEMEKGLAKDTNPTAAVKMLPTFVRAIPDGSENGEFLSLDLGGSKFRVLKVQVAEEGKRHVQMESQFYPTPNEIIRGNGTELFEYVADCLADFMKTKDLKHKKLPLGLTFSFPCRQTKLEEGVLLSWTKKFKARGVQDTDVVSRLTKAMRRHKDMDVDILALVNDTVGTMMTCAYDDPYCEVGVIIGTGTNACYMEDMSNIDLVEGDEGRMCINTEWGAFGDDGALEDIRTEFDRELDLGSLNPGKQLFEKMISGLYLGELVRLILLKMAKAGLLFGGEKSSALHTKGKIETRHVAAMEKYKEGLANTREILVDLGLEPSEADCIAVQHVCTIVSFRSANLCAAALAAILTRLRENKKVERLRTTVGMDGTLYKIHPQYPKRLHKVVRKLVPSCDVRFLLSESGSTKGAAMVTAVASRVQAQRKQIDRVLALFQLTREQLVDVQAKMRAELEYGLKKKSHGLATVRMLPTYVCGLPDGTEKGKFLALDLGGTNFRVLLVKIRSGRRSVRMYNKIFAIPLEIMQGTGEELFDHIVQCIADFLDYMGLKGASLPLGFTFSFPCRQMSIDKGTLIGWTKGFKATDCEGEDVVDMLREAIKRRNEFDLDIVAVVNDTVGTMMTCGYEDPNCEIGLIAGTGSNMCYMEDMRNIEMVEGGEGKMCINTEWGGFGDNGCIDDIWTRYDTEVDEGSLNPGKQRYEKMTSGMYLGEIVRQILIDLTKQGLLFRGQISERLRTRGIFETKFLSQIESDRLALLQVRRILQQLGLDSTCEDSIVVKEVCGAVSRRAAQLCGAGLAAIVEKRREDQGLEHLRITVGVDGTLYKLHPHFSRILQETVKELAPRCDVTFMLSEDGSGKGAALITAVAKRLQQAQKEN

[8] = target: Glucose-6-phosphate 1-dehydrogenase (Homo sapiens, UniProt P11413); assay: inhibition of Homo sapiens G6PD, dose series – biochemical, fluorescence, selectivity assay for P. falciparum G6PD inhibitor project, dose response (AID 504792); assay type: functional
Chain of Glucose-6-phosphate 1-dehydrogenase (P11413 whole entry): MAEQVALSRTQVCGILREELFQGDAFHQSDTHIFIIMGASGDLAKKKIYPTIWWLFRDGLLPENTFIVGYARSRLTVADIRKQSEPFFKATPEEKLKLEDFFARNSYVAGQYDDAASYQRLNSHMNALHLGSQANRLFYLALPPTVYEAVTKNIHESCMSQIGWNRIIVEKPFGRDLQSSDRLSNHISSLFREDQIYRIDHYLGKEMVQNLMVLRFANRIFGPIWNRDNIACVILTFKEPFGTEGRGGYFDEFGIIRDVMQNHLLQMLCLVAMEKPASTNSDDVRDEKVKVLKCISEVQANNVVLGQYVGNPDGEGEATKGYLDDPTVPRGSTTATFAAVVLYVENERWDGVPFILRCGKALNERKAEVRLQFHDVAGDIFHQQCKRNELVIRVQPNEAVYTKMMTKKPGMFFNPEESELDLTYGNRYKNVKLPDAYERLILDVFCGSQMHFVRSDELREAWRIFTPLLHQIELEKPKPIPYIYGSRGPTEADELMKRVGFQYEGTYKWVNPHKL

[9] = target: T5, Short transient receptor potential channel 4 (Mus musculus, UniProt Q9QUQ5); assay: calcium entry via TRPC4 opening agents – cell-based, HEK293 TRPC4/mu-opioid, Fluo-4 calcium, dose response (AID 434937); assay type: functional
T5 sequence (Q9QUQ5 whole entry): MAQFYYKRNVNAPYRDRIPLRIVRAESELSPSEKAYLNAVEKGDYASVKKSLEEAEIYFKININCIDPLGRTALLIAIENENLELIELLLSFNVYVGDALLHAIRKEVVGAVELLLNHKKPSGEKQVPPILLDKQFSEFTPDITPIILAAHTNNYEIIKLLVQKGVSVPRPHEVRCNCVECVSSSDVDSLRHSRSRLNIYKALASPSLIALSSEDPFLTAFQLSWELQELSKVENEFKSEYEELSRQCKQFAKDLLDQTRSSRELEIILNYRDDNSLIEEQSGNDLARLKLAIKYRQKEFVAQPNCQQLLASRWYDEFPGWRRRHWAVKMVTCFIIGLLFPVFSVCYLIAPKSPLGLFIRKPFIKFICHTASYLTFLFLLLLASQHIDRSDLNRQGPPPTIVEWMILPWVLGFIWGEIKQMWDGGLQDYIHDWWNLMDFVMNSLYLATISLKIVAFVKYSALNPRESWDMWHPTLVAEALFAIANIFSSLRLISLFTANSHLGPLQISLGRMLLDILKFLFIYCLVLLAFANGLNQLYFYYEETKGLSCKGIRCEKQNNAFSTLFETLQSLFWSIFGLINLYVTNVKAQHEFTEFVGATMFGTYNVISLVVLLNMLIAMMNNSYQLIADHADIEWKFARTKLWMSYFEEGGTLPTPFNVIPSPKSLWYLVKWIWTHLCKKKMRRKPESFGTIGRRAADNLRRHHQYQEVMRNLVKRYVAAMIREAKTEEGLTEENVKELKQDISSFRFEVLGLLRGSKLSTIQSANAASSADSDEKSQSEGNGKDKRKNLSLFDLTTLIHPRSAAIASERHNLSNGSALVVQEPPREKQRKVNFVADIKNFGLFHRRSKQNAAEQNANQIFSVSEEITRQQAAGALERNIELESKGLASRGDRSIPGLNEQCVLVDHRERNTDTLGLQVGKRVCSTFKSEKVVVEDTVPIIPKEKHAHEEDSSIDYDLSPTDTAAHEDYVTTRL

[10] = target: NS3 (Hepatitis C virus, UniProt A3EZJ3); assay: PubChem AID 2173; set-up: species or system Hepacivirus hominis
Chain of NS3 (A3EZJ3 whole entry): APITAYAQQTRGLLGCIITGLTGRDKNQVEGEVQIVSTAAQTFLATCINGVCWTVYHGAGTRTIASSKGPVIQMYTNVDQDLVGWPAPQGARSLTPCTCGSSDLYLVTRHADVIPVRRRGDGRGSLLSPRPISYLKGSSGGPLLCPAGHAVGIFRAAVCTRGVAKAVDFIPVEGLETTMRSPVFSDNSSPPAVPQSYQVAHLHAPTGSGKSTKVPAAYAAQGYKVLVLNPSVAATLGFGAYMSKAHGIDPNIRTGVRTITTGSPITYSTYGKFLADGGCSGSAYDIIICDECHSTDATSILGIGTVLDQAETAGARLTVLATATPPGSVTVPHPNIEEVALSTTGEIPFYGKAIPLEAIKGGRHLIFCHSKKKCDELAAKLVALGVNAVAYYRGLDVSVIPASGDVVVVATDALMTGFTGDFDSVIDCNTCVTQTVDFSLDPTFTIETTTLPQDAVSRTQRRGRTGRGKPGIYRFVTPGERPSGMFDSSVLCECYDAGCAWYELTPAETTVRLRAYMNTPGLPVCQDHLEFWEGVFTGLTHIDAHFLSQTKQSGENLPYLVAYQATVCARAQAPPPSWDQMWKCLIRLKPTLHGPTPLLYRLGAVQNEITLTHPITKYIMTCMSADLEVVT

Chain of Acyl-homoserine lactone acylase PvdQ (Q9I194 24-193 limits assumed): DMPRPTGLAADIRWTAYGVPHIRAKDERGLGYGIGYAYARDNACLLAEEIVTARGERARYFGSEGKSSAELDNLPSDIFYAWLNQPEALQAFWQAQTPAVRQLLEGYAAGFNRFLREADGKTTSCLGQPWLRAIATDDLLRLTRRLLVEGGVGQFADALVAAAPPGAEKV
Chain of Acyl-homoserine lactone acylase PvdQ (Q9I194 217-762 limits assumed): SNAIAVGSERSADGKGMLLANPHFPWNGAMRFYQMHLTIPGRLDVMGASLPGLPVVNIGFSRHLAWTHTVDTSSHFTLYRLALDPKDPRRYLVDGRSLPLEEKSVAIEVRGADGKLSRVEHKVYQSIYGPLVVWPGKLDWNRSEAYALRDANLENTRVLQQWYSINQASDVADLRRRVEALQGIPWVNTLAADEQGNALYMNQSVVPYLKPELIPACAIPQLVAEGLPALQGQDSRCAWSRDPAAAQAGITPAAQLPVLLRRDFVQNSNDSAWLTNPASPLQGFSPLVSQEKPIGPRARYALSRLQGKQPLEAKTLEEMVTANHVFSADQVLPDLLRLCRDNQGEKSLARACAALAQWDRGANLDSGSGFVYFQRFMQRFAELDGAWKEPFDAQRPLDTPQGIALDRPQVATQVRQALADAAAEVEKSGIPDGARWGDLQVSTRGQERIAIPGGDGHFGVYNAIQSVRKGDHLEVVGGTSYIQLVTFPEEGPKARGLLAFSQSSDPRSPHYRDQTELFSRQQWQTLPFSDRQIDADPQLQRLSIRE

SMILES: N#CC(c1ccc(Cl)cc1)c1ccc(Cl)nn1 (stereo not given)
AC50 [1]: 0.991 µM (active)

EC50 [2]: > 50 µM (not active)
SMILES: C=CCSC1=N/C(=C\c2ccsc2)C(=O)S1

IC50 [3]: 50.7 µM (inactive) | IC50 [4]: > 66 µM (inactive) | EC50 [5]: 5.82 µM (active) | EC50 [6]: 22.3 µM (inconclusive) | IC50 [7]: 49.6 µM (inactive) | IC50 [8]: 34.7 µM (inactive)
SMILES: CN(C)Cc1cc(O)c(CN(C)C)cc1O

EC50 [9]: 5.96 µM (active) | IC50 [10]: 15.2 µM (not active)
SMILES: Cc1occc1C(=O)NNC(=S)NC(=O)COc1ccc(Cl)cc1Cl
